The values below come from article PMC8533403, “Nostocyclopeptides as New Inhibitors of 20S Proteasome” (Biomolecules, 2021).

The subject of experiment [1] is 20S proteasome T-L activity. Particulars: cited from earlier work. From the text:
(§1) The 26S proteasome is a large (2.4 MDa), multifunctional and ATP-dependent enzymatic complex with chymotrypsin-like (CT-L), trypsin-like (T-L), and caspase-like (C-L) activities. In eukaryotic organisms, it recognizes and degrades proteins with covalently attached ubiquitin (8.5 kDa protein). The 26S proteasome is composed of a 20S barrel-shaped core particle (700 kDa) responsible for proteolytic activity and one or two 19S (890 kDa) regulatory subunits with ubiquitin-binding sites. The 20S proteasome also occurs as a free complex that degrades protein ...

The subject of the next experiment is proteasome. On the set-up: method as in PMID 18801655. Particulars: read-out: IC50, proteasome inhibition; cited from earlier work.
Experiment [2] has as its target T1, human 20S proteasome (h20S), chymotrypsin-like (CT-L) activity (Homo sapiens, UniProt P28074).
T1 construct: Human 20S proteasome (h20S) isolated from erythrocytes was used; from tissue; host or cells: human erythrocytes
Nature of the experiment: Human 20S inhibition assay, chymotrypsin-like activity (Suc-LLVY-AMC). It counts as biochemical. Particulars: Suc-LLVY-AMC 100 µM, pH 8.0, 37 °C. On the procedure:
(§2) The 20S proteasome inhibition assay was performed following the procedure of Czerwonka et al.. Human 20S proteasome (h20S) isolated from erythrocytes was used. Latent h20S was activated with 0.01% SDS (sodium dodecyl sulfate). The final concentration of the proteasome was 1 µg mL^−1 (1.4 nM). The fluorogenic substrates, Suc-LLVY-AMC, Boc-LRR-AMC, and Z-LLE-AMC, were used as probes in the chymotrypsin-like, trypsin, and caspase-like activity assays, respectively, at a final concentration of 100 µM. Stock solutions of Ncps (10 mM) were prepared in dimethyl sulfoxide (DMSO) and were tested in the concentration range of 5 to 50 μM. The content of DMSO never exceeded 3% of the final reaction volume. The assays were performed in a 96-well plate in 50 mM TrisHCl, pH 8.0, at 37 °C. The percentage of the substrate hydrolysis was measured by the amount of the released AMC (aminomethyl coumarin) using Tecan Infinite M200 Pro (λ = 380–460 nm) spectrofluorimeter (Tecan Trading AG, Männedorf, Switzerland). The fluorescence measurements were performed at 2-min intervals for 60 min. The activity of h20S in the presence of isolated Ncps was calculated in relation to the control (DMSO). The known proteasome inhibitor PR11 [28] was used to ensure the correctness of the assay. The peptide at the final concentration of 0.2 µM decreases the relative CT-L activity of the h20S to 6% of the control.

Experiment [3] addresses T2, human 20S proteasome (h20S), trypsin-like (T-L) activity (Homo sapiens, UniProt Q99436).
T2 construct: Human 20S proteasome (h20S) isolated from erythrocytes was used; from tissue; host or cells: human erythrocytes
Nature of the experiment: Human 20S inhibition assay, trypsin-like activity (Boc-LRR-AMC). It counts as biochemical. Particulars: tested 5 to 50 µM; Boc-LRR-AMC 100 µM; pH 8.0, 37 °C; no replications; Figure 2B. On the procedure: as §2

Experiment [4] deals with T3, human 20S proteasome (h20S), caspase-like (C-L) activity (Homo sapiens, UniProt P28072).
T3 construct: Human 20S proteasome (h20S) isolated from erythrocytes was used; from tissue; host or cells: human erythrocytes
Kind of experiment: Human 20S inhibition assay, caspase-like activity (Z-LLE-AMC). Particulars: tested 5 to 50 µM; Z-LLE-AMC 100 µM; pH 8.0, 37 °C; no replications; Figure 2C. It counts as biochemical. On the procedure:
as §2

Experiment [5] relates to proteasome CT-L activity. Particulars: cited from earlier work. On the procedure:
(§3) Nostodione A from Scytonema hofmannii, which inhibits CT-L activity (IC50 50 μM), contains indole moiety fused with diketone system.

Experiment [6] has as its system Saccharomyces cerevisiae 20S proteasome CT-L activity. The note with it: cited from earlier work. On the procedure: as §3
The subject of experiment [7] is 20S proteasome CT-L activity. Particulars: cited from earlier work.
Source text: as §1

Experiment [8] has as its system 20S proteasome C-L activity. The note with it: cited from earlier work.
Source text: as §1

The test system of experiment [9] is proteasome CT-L activity. Particulars: cited from earlier work.
Source text: as §1
This is another data set of the same source.

In another experiment the test system is 20S complex (proteasome). The note with it: read-out: IC50, catalytic activity of proteasome; cited from earlier work. On the procedure:
as §3

Where a SMILES comes first, the peptide text is derived from it. [ ]: non-standard residue; d: D form. The star is where a group is joined. ξ: configuration not given here. ξPro(4ξ-Me) = CC1CNC(C(=O)O)C1; Cbz = O=C(OCc1ccccc1)*

For the compound `CC(=O)N[C@@H](CC(C)C)C(=O)N[C@@H](CC(C)C)C(=O)N[C@H](C=O)CCCNC(=N)N` [Leupeptin], the “effect on T-L activity of the 20S proteasome” value in [1] is reported as “inhibits T-L activity”.
Regarding `CC(C)C[C@@H](C=O)NC(=O)[C@H](CC(C)C)NC(=O)[C@H](CC(C)C)NC(=O)OCc1ccccc1` [MG-132] (Cbz-Leu-Leu-Leu-aldehyde), the IC50 in the experiment on proteasome is 110 nM.
`CCC(C)C(NC(=O)C(CCC(N)=O)NC(=O)CNC(=O)C(N)Cc1ccc(O)cc1)C(=O)NC(CO)C(=O)N1CC(C)CC1C(=O)NC(C=O)Cc1ccccc1` (stereo not drawn) [Ncp-A2-L, Tyr-Gly-Gln-Ile-Ser-MePro-Phe-H] (H-YGQIS[ξPro(4ξ-Me)]F-aldehyde; configuration not given here) yielded an IC50 in [2] (h20S 1.4 nM, approximate (ca.)) of around 50000 nM.
As to `CC[C@H](C)[C@H](NC(=O)[C@@H](CCC(N)=O)NC(=O)CNC(=O)[C@@H](N)Cc1ccc(O)cc1)C(=O)N[C@@H](CO)C(=O)N1CCC[C@H]1C(=O)N[C@H](C=O)CC(C)C` [Ncp-E2-L] (H-YG[dQ]ISPL-aldehyde; N-terminus assumed), the “effect on CT-L activity of the human 20S proteasome at 50 µM” value in [2] (applied at 50 µM, triplicate, Figure 2A) is recorded as “inhibited”. For the same compound, the “effect on T-L activity of the human 20S proteasome” value in experiment [3] is recorded as “did not modify”. In addition, the “effect on C-L activity of the human 20S proteasome” value in [4] is recorded as “did not modify”.
Turning to `O=C1C(=O)c2c([nH]c3ccccc23)/C1=C\c1ccc(O)cc1` [Nostodione A], the IC50 with proteasome CT-L activity [5] is 50000 nM.
Take `CCCCCC(=O)N[C@H](C(=O)N[C@@H](CC[S+](C)[O-])C(=O)N[C@@H](CC(C)C)C(=O)[C@@]1(C)CO1)C(C)C` (some centres unmarked) [carmaphycin A]: the “inhibition of CT-L activity of the Saccharomyces cerevisiae 20S proteasome” value in experiment [6] is “low nanomolar concentrations”.
For `CCCCCC(=O)N[C@H](C(=O)N[C@@H](CCS(C)(=O)=O)C(=O)N[C@@H](CC(C)C)C(=O)[C@@]1(C)CO1)C(C)C` [carmaphycin B], the “inhibition of CT-L activity of the Saccharomyces cerevisiae 20S proteasome” value in experiment [6] was “low nanomolar concentrations”.
On to `CCCCCCCCC[C@@H](O)CC(=O)N[C@@H](CC(N)=O)C(=O)N[C@@H](CCC(N)=O)C(=O)N[C@H](C=O)CC(C)C` [fellutamide B], for which the IC50 in [7] was 9.4 nM; in experiment [8], 1200 nM; in experiment [1], 2000 nM.
For the compound Tyropeptin A, the “effect on CT-L activity” value in the experiment on proteasome CT-L activity [9] is listed as “inhibits mainly CT-L activity”.
With scytonemide A, the IC50 in the experiment with 20S complex (proteasome) is 96 nM.
